Measurements from PubChem BioAssay (NCI).
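Following 48 hours of exposure in 96-well plates, responses at five concentrations were used to interpolate endpoints linearly. GI50 is the concentration that inhibits growth by half. TGI: concentration producing complete growth inhibition.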

Legend:
Experiment in all cases: inhibition of tumour cell growth, NCI panel, 48 h
SK-MEL-5 melanoma = test system: SK-MEL-5 melanoma
ACHN renal = test system: ACHN renal
SF-539 CNS = test system: SF-539 CNS
SNB-19 CNS = test system: SNB-19 CNS
RPMI-8226 leukemia = test system: RPMI-8226 leukemia
HT29 colon = test system: HT29 colon
SR leukemia = test system: SR leukemia
M14 melanoma = test system: M14 melanoma
T-47D breast = test system: T-47D breast
EKVX NSCLC = test system: EKVX NSCLC

Compound	GI50 (SK-MEL-5 melanoma) [µM]	TGI (SK-MEL-5 melanoma) [µM]	GI50 (ACHN renal) [µM]	TGI (ACHN renal) [µM]	GI50 (SF-539 CNS) [µM]	TGI (SF-539 CNS) [µM]	GI50 (SNB-19 CNS) [µM]	TGI (SNB-19 CNS) [µM]	GI50 (RPMI-8226 leukemia) [µM]	TGI (RPMI-8226 leukemia) [µM]	GI50 (HT29 colon) [µM]	TGI (HT29 colon) [µM]	GI50 (SR leukemia) [µM]	TGI (SR leukemia) [µM]	GI50 (M14 melanoma) [µM]	TGI (M14 melanoma) [µM]	GI50 (T-47D breast) [µM]	TGI (T-47D breast) [µM]	GI50 (EKVX NSCLC) [µM]	TGI (EKVX NSCLC) [µM]
C[C@H](NC(=O)[C@@H]1CSSC[C@@H](NC(=O)c2nc3ccccc3cc2O)C(=O)NCC(=O)N1C)c1ccccc1	0.582	3.82	4.63	12.8	1.63	9.13	7.24	19.4	5.67	21.5	1.13	3.35	0.17	0.877	0.318	9.76	1.11	3.79	3.48	11.8
O=C(c1ccc2ccccc2c1)c1c(C(F)(F)F)n([O-])c2cc(F)c(F)cc2[n+]1=O	4.84	18.3	2.03	4.16	2.21	3.98	2	4.1	1.12	3.79	2.34	5.29	0.45	3.18	2.53	7.11	2.67	6.14	2.46	6.43
COc1ccc(Nc2ncc(Br)c(NCCCNC(=O)C3CCC3)n2)cc1	13	35.1	13.5	> 100	3.69	18.5	8.95	> 100	14	42.1	18.7	85.4	4.34	40.1	31.5	> 100	41.2	98.7	20.5	83.9
CCCn1c(SC)nc(COC(=O)NC)c1COC(=O)NC		> 100		> 100		> 100		> 100		> 100		> 100		> 100		> 100		> 100		> 100
CCC(=O)O[C@H]1CC[C@H]2[C@@H]3CC[C@H]4CC(=O)[C@H](C)C[C@]4(C)[C@H]3CC[C@]12C	5.89	> 60.9	38	> 100	> 83.5	> 100	> 100	> 100	2.52	13	19.2	> 100	3.21	21.8	48.1	> 100	26	> 100	22.1	> 100
Oc1ccc(C(c2ccc(O)cc2)c2ccc(Cl)cn2)cc1	15.6	34.5	0.427	22.2	13.7	> 100	19.1	> 100	21.1	> 84.8	4.97	> 100	29.5	> 100	21.3	> 100	0.0243	0.0762	0.349	6.59
COc1ccc(C2SCC(=O)N2NC(=O)C(O)c2ccccc2)cc1OC (stereo not given)	> 100	> 100	> 100	> 100	> 100	> 100	> 100	> 100	> 100	> 100	> 100	> 100	40.9	> 100	> 100	> 100	> 100	> 100	> 100	> 100
